Test results published in patent US20230295162A1 (EÖTVÖS LORÁND TUDOMÁNYEGYETEM, priority 2020, published 2023).
Like-named read-outs stand apart in the source and are kept apart here.

Legend:
[1] = tested on: Capan-1 (pancreas, adenocarcinoma) cells; assay: Cell viability assay, CellTiter-Glo (Example 21); format: cell-based, human; settings: 72 h treatment
In short: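 Viability of Capan-1 pancreatic adenocarcinoma cells was assessed using Promega's CellTiter-Glo® luminescence kit. Cells were plated at 1000 cells/well in white, flat-bottom 96 well plates, treated, then luminescence was recorded on a BioTek Synergy 2 reader. Dose-response curves were fitted in GraphPad Prism 8.4.2 with a four-parameter variable-slope non-linear regression.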

[2] = tested on: MIA PaCa-2 (pancreas, carcinoma) cells; assay: Cell viability assay, CellTiter-Glo (Example 21); format: cell-based, human; settings: 72 h treatment
In short: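 Cell viability of MIA PaCa-2 cells was assessed by CellTiter-Glo® luminescence (Promega, Madison, WI, USA). Cells were plated at 1000 cells/well, a density chosen for their size and growth rate, in white flat-bottomed 96 well plates. After treatment, the signal was recorded on a BioTek microplate reader, and dose-response curves were fitted in GraphPad Prism 8.4.2 with a four-parameter variable-slope non-linear regression.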

[3] = tested on: LNCaP (prostate, carcinoma) cells; assay: Cell viability assay, CellTiter-Glo (Example 21); format: cell-based, human; settings: 72 h
In short: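 Flat-bottomed white 96 well plates received 1500 LNCaP cells per well, a density chosen to suit the cells' size and growth rate. Following compound treatment, viability was measured by CellTiter-Glo® luminescence per the manufacturer's protocol, with signal recorded on a BioTek Synergy 2 reader. GraphPad Prism 8.4.2 generated dose-response curves using a four-parameter, variable-slope non-linear regression model.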

[4] = tested on: MDA-MB-231 (breast, adenocarcinoma) cells; assay: Cell viability assay, CellTiter-Glo (Example 21); format: cell-based, human; settings: 72 h treatment
In short: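 Viability of MDA-MB-231 cells was quantified by luminescence using Promega's CellTiter-Glo® kit per manufacturer instructions. Cells, plated at a size- and growth-optimized density of 1500 cells/well in white flat-bottom 96 well plates, were treated and then read on a BioTek Synergy 2 reader; dose-response curves used four-parameter variable-slope non-linear regression in GraphPad Prism 8.4.2.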

[5] = tested on: SCC-25 (tongue, squamous cell carcinoma) cells; assay: Cell viability assay, CellTiter-Glo (Example 21); format: cell-based, human; settings: 72 h treatment
In short: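 Cell viability of SCC-25 cells was assessed by CellTiter-Glo luminescence after compound exposure. Cells were plated at 1000 cells/well, a density chosen for their size and growth rate, on white flat-bottom 96 well plates. Signal was recorded on a microplate reader, and dose-response curves were fitted in GraphPad Prism by four-parameter variable-slope non-linear regression.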

[6] = tested on: Detroit 562 (pharynx, carcinoma) cells; assay: Cell viability assay, CellTiter-Glo (Example 21); format: cell-based, human; settings: 72 h treatment
In short: (§1)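 Cells were seeded at optimized densities (Panc-1 750, FaDu 1000, Detroit 562 and MDA-MB-453 1500 cells/well), then treated with compound. Viability was read by CellTiter-Glo luminescence. Dose-response curves were fitted by four-parameter variable-slope non-linear regression.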

[7] = tested on: DU 145 (prostate, carcinoma) cells; assay: Cell viability assay, CellTiter-Glo (Example 21); format: cell-based, human; settings: 72 h
In short: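 DU 145 prostate carcinoma cells were plated at 1000 cells/well in white flat-bottom 96 well plates and exposed to compound. Viability was then determined by CellTiter-Glo® luminescence on a BioTek Synergy 2 reader, and dose-response curves were fitted in GraphPad Prism 8.4.2 with a four-parameter variable-slope non-linear regression.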

[8] = tested on: FaDu (pharynx, squamous cell carcinoma) cells; assay: Cell viability assay, CellTiter-Glo (Example 21); format: cell-based, human; settings: 72 h treatment
In short: as §1

[9] = tested on: EBC-1 (lung, squamous cell carcinoma) cells; assay: Cell viability assay, CellTiter-Glo (Example 21); format: cell-based, human; settings: 72 h treatment
In short: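 The CellTiter-Glo luminescent cell viability assay (Promega) was used to test compound effects on EBC-1 cells. Cells were plated at 1000 cells/well on white flat-bottom 96 well plates, treated, then read for luminescence on a microplate reader. Dose-response curves were fitted by four-parameter variable-slope non-linear regression.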

[10] = tested on: PC-3 (prostate, adenocarcinoma) cells; assay: Cell viability assay, CellTiter-Glo (Example 21); format: cell-based, human; settings: 72 h treatment
In short: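 Cancer cell viability was assessed by luminescence using Promega's CellTiter-Glo® kit. PC-3 cells, plated at a density of 1000 cells/well in white flat-bottom 96 well plates, were exposed to test compounds, after which signals were measured on a microplate reader and dose-response curves fitted by four-parameter variable-slope non-linear regression in GraphPad Prism 8.4.2.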

[11] = tested on: Panc-1 (pancreas, carcinoma) cells; assay: Cell viability assay, CellTiter-Glo (Example 21); format: cell-based, human; settings: 72 h treatment
In short: as §1

[12] = tested on: MDA-MB-453 (breast, carcinoma) cells; assay: Cell viability assay, CellTiter-Glo (Example 21); format: cell-based, human; settings: 72 h treatment
In short: as §1

[13] = tested on: Panc1 pancreatic cancer cell line; assay: CellTiter-Glo IC50 (Example 19); format: cell-based; settings: Homo sapiens, PANC-1, 72 h
In short: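 Cells were seeded at 1000 cells/well and kept at 37 °C, 5% CO2. After compound treatment, viability was read by CellTiter-Glo luminescence as % of untreated control. IC50 came from a non-linear log(inhibitor) vs response fit with variable slope.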

Panc-1 human cell line = assay: Cytotoxicity on Panc-1, xCELLigence SP, IC50 after 24 h, 48 h, 72 h and 96 h (Example 22)

## O=C1C2=C(CCN(Cc3cc(F)cc(F)c3)C2)N2CCN=C2N1Cc1ccc(Cl)cc1 [I/124, 4-(4-Chlorobenzyl)-7-(3,5-difluorobenzyl)-2,4,6,7,8,9-hexahydroimidazo[1,2-a]pyrido[3,4-e]pyrimidin-5(1H)-one]
[1]; 3.7 nM
  Capan-1 (pancreas, adenocarcinoma) cell viability (% of control): 88.5 ± 1.8 % of control
[1]; 11.1 nM
  Capan-1 (pancreas, adenocarcinoma) cell viability (% of control): 35.3 ± 3.1 % of control
[1]; 100 nM
  Capan-1 (pancreas, adenocarcinoma) cell viability (% of control): 33.6 ± 1.1 % of control
[1]; 300 nM
  Capan-1 (pancreas, adenocarcinoma) cell viability (% of control): 34.6 ± 2.4 % of control
[2]; 3.7 nM
  MIA PaCa-2 (pancreas, carcinoma) cell viability (% of control): 33.5 ± 12.1 % of control
[2]; 11.1 nM
  MIA PaCa-2 (pancreas, carcinoma) cell viability (% of control): 18.9 ± 7.1 % of control
[2]; 100 nM
  MIA PaCa-2 (pancreas, carcinoma) cell viability (% of control): 18.7 ± 7.1 % of control
[2]; 300 nM
  MIA PaCa-2 (pancreas, carcinoma) cell viability (% of control): 18.0 ± 7.3 % of control
[3]; 3.7 nM
  LNCaP cell viability: 20.8 ± 2.0 % of control
[3]; 11.1 nM
  LNCaP cell viability: 13.3 ± 1.6 % of control
[3]; 100 nM
  LNCaP cell viability: 12.7 ± 0.8 % of control
[3]; 300 nM
  LNCaP cell viability: 13.0 ± 0.7 % of control
[4]; 3.7 nM
  MDA-MB-231 (breast, adenocarcinoma) cell viability (% of control): 82.4 ± 7.2 % of control
[4]; 11.1 nM
  MDA-MB-231 (breast, adenocarcinoma) cell viability (% of control): 59.4 ± 4.5 % of control
[4]; 100 nM
  MDA-MB-231 (breast, adenocarcinoma) cell viability (% of control): 55.9 ± 5.3 % of control
[4]; 300 nM
  MDA-MB-231 (breast, adenocarcinoma) cell viability (% of control): 54.2 ± 2.4 % of control
[5]; 3.7 nM
  SCC-25 (tongue, squamous cell carcinoma) cell viability (% of control): 47.2 ± 5.8 % of control
[5]; 11.1 nM
  SCC-25 (tongue, squamous cell carcinoma) cell viability (% of control): 34.3 ± 2.0 % of control
[5]; 100 nM
  SCC-25 (tongue, squamous cell carcinoma) cell viability (% of control): 37.5 ± 1.4 % of control
[5]; 300 nM
  SCC-25 (tongue, squamous cell carcinoma) cell viability (% of control): 42.3 ± 5.2 % of control
[6]; 3.7 nM
  Detroit 562 (pharynx, carcinoma) cell viability (% of control): 29.4 ± 4.9 % of control
[6]; 11.1 nM
  Detroit 562 (pharynx, carcinoma) cell viability (% of control): 27.8 ± 3.6 % of control
[6]; 100 nM
  Detroit 562 (pharynx, carcinoma) cell viability (% of control): 28.3 ± 3.6 % of control
[6]; 300 nM
  Detroit 562 (pharynx, carcinoma) cell viability (% of control): 31.5 ± 3.7 % of control
[7]; 3.7 nM
  DU 145 cell viability: 10.0 ± 1.4 % of control
[7]; 11.1 nM
  DU 145 cell viability: 7.0 ± 1.1 % of control
[7]; 100 nM
  DU 145 cell viability: 8.0 ± 1.0 % of control
[7]; 300 nM
  DU 145 cell viability: 7.7 ± 1.8 % of control
[8]; 3.7 nM
  FaDu (pharynx, squamous cell carcinoma) cell viability (% of control): 45.6 ± 20.7 % of control
[8]; 11.1 nM
  FaDu (pharynx, squamous cell carcinoma) cell viability (% of control): 26.1 ± 6.2 % of control
[8]; 100 nM
  FaDu (pharynx, squamous cell carcinoma) cell viability (% of control): 24.5 ± 4.6 % of control
[8]; 300 nM
  FaDu (pharynx, squamous cell carcinoma) cell viability (% of control): 24.7 ± 5.0 % of control
[9]; 3.7 nM
  EBC-1 (lung, squamous cell carcinoma) cell viability (% of control): 70.9 ± 8.3 % of control
[9]; 11.1 nM
  EBC-1 (lung, squamous cell carcinoma) cell viability (% of control): 25.3 ± 0.7 % of control
[9]; 100 nM
  EBC-1 (lung, squamous cell carcinoma) cell viability (% of control): 22.4 ± 0.5 % of control
[9]; 300 nM
  EBC-1 (lung, squamous cell carcinoma) cell viability (% of control): 23.5 ± 1.3 % of control
[10]; 3.7 nM
  PC-3 (prostate, adenocarcinoma) cell viability (% of control): 46.9 ± 4.2 % of control
[10]; 11.1 nM
  PC-3 (prostate, adenocarcinoma) cell viability (% of control): 33.9 ± 3.3 % of control
[10]; 100 nM
  PC-3 (prostate, adenocarcinoma) cell viability (% of control): 32.8 ± 3.2 % of control
[10]; 300 nM
  PC-3 (prostate, adenocarcinoma) cell viability (% of control): 32.7 ± 14.4 % of control
[11]; 3.7 nM
  Panc-1 (pancreas, carcinoma) cell viability (% of control): 99.7 ± 3.0 % of control
[11]; 11.1 nM
  Panc-1 (pancreas, carcinoma) cell viability (% of control): 56.9 ± 0.2 % of control
[11]; 100 nM
  Panc-1 (pancreas, carcinoma) cell viability (% of control): 50.9 ± 0.3 % of control
[11]; 300 nM
  Panc-1 (pancreas, carcinoma) cell viability (% of control): 51.2 ± 0.4 % of control
[12]; 3.7 nM
  MDA-MB-453 (breast, carcinoma) cell viability (% of control): 37.9 ± 3.2 % of control
[12]; 11.1 nM
  MDA-MB-453 (breast, carcinoma) cell viability (% of control): 33.5 ± 1.8 % of control
[12]; 100 nM
  MDA-MB-453 (breast, carcinoma) cell viability (% of control): 31.2 ± 2.2 % of control
[12]; 300 nM
  MDA-MB-453 (breast, carcinoma) cell viability (% of control): 30.9 ± 1.4 % of control
[13]
  IC50: 2 nM
Panc-1 human cell line; PANC-1, 72 h, read-out: IC50 (72 h) [nM]
  IC50: 1.31 ± 0.286 nM
Panc-1 human cell line; PANC-1, 96 h, read-out: IC50 (96 h) [nM]
  IC50: < 0.25 nM
